From patent EP0799218B1, “DIARYL-2-(5H)-FURANONES AS COX-2 INHIBITORS” (Merck Frosst Canada & Co., priority 1994, dated 1996)

Experiments:
[1] = target: T1, Cox-2 (Homo sapiens, UniProt P35354); assay: Human whole blood assay, Cox-2 (LPS-induced PGE2 production); format: cell-based; conditions: LPS 100 µg/ml, 24 hours at 37 °C, PGE2 by radioimmunoassay, read-out: HWB Cox-2 IC50
T1 construct: endogenous in cells; host or cells: fresh heparinized human whole blood from volunteers, stimulated with LPS
T1 sequence (P35354 18-604 limits assumed): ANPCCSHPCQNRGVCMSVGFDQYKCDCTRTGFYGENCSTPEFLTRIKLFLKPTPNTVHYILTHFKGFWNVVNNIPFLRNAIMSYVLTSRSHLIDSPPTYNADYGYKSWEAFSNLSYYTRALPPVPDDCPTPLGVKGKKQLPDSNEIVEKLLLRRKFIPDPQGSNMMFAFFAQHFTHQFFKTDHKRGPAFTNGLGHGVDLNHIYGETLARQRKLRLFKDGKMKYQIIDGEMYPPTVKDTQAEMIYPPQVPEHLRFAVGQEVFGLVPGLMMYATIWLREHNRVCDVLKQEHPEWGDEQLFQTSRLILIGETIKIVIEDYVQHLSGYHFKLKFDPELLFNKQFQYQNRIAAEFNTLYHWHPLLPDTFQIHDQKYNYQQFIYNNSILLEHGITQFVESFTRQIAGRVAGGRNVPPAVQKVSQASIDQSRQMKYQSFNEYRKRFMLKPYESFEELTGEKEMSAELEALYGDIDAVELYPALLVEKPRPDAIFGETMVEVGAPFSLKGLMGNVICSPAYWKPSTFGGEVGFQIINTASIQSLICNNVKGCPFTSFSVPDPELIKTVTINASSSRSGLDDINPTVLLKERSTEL
Experimental: (§1) Human whole blood provides a protein and cell-rich milieu appropriate for the study of biochemical efficacy of anti-inflammatory compounds such as selective Cox-2 inhibitors. […] This is consistent with the observation that Cox-2 inhibitors have no effect on PGE2 production in normal blood. These inhibitors are active only after incubation of human whole blood with LPS (lipopolysaccharide), which induces Cox-2. This assay can be used to evaluate the inhibitory effect of selective Cox-2 inhibitors on PGE2 production: As well, platelets in whole blood contain a large amount of the Cox-1 enzyme. Immediately following blood clotting, platelets are activated through a thrombin-mediated mechanism. This reaction results in the production of thromboxane B2 (TxB2) via activation of Cox-1. Thus, the effect of test compounds on TxB2 levels levels following blood clotting can be examined and used as an index for Cox-1 activity. Therefore, the degree of selectivity by the test compound can be determined by measuring the levels of PGE2 after LPS induction (Cox-2) and TxB2 following blood clotting (Cox-1) in the same assay.
Fresh blood was collected in heparinized tubes by venipuncture from both male and female volunteers. The subjects had no apparent inflammatory conditions and had not taken any NSAIDs for at least 7 days prior to blood collection. Plasma was immediately obtained from a 2mL blood aliquot to use as blank (basal levels of PGE2). The remaining blood was incubated with LPS (100 µg/ml final concentration, Sigma Chem, #L-2630 from E. coli; diluted in 0.1% BSA-Phosphate buffered saline) for 5 minutes at room temperature. Five hundred µL aliquots of blood were incubated with either 2 µL vehicle (DMSO) or 2 µL of a test compound at final concentrations varying from 10nM to 30µM for 24 hours at 37 °C. At the end of the incubation, the blood was centrifuged at 12,000 x g for 5 minutes to obtain plasma. A 100 µL aliquot of plasma was mixed with 400 µL of methanol for protein precipitation. The supernatant was obtained and was assayed for PGE2 using a radioimmunoassay kit (Amersham, RPA#530) after conversion of PGE2 to its methyl oximate derivative according to the manufacturer's procedure.
(§2) Compounds of the present invention are inhibitors of cyclooxygenase-2 and are thereby useful in the treatment of cyclooxygenase-2 mediated diseases as enumerated above. The activities of the compounds against cyclooxygenase may be seen in the representative results shown below. In the assay, inhibition is determined by measuring the amount of prostaglandin E2 (PGE2) synthesized in the presence of arachidonic acid, cyclooxygenase-1 or cyclooxygenase-2 and a putative inhibitor. The IC50 values represent the concentration of putative inhibitor required to return PGE2 synthesis to 50% of that obtained as compared to the uninhibited control.

[2] = target: T2, Cox-1 (Homo sapiens, UniProt P23219); assay: Human whole blood assay, Cox-1 (clotting-induced TxB2 production); format: cell-based; conditions: clotting 1 hour at 37 °C, TxB2 by enzyme immunoassay, read-out: HWB Cox-1 IC50
T2 construct: platelets in whole blood contain a large amount of the Cox-1 enzyme; endogenous in cells; host or cells: platelets in fresh human whole blood, no anticoagulant, clotting for 1 hour at 37 °C
T2 sequence (P23219 24-599): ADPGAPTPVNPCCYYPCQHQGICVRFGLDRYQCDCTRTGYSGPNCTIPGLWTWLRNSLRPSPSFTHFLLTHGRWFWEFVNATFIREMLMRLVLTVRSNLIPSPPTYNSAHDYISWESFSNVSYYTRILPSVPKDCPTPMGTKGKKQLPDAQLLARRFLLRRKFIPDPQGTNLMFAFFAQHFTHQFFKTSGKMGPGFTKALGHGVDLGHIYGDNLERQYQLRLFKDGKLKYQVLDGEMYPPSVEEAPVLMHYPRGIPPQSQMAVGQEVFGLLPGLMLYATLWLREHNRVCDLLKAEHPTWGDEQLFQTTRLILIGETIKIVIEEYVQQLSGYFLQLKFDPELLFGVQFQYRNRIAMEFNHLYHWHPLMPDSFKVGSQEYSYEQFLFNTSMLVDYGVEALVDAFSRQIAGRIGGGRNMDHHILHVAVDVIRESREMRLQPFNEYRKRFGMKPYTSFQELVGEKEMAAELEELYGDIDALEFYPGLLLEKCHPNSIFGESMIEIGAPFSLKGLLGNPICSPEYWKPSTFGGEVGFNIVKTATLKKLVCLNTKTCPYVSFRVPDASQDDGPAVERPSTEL
Experimental: as §1
Fresh blood was collected into vacutainers containing no anticoagulants. Aliquots of 500 µL were immediately transferred to siliconized microcentrifuge tubes preloaded with 2 µL of either DMSO or a test compound at final concentrations varying from 10nM to 30 µM. The tubes were vortexed and incubated at 37 °C for 1 hour to allow blood to clot. At the end of incubation, serum was obtained by centrifugation (12,000 x g for 5 min.). A 100 µL aliquot of serum was mixed with 400 µL of methanol for protein precipitation. The supernatant was obtained and was assayed for TxB2 using a enzyme immunoassay kit (Cayman, #519031) according to the manufacturer's instruction.
as §2

[3] = system: Rat Paw Edema; assay: Rat paw edema assay (carrageenan-induced); format: in vivo, Male Sprague-Dawley rats; conditions: po, 1 hr before subplantar carrageenan, paw volume 3 hr later
Experimental: Male Sprague-Dawley rats (150 - 200 g) were fasted overnight and were given po either vehicle (1% methocel or 5% Tween 80) or a test compound. One hr later, a line was drawn using a permanent marker at the level above the ankle in one hind paw to define the area of the paw to be monitored. The paw volume (V0) was measured using a plethysmometer (Ugo-Basile, Italy) based on the principle of water displacement The animals were then injected subplantarly with 50 µl of 1% carrageenan solution in saline (FMC Corp, Maine) into the paw using an insulin syringe with a 25-gauge needle (i.e. 500 µg carrageenan per paw). Three hr later, the paw volume (V3) was measured and the increases in paw volume (V3 - V0) were calculated. The animals were sacrificed by CO2 aphyxiation and the absence or presence of stomach lesions scored. Data were compared with the vehicle-control values and percent inhibition calculated. Since a maximum of 60-70% inhibition (paw edema) was obtained with standard NSAIDs, ED30 values were used for comparison. All treatment groups were coded to eliminate observer bias.

Compound	IC50 [1] [nM]	IC50 [2] [nM]	ED30 [3] [mg/kg]
COc1cccc(C2=C(c3ccc(S(C)(=O)=O)cc3)C(C)(C)OC2=O)c1 [Example 2, 5,5-Dimethyl-3-(3-methoxyphenyl)-4-(4-(methylsulfonyl)phenyl)-2-(5H)-furanone]	810	> 30000	0.3
CS(=O)(=O)c1ccc(C2=C(c3ccccc3)C(=O)OC2(CF)CF)cc1 [Example 14, 5,5-Bisfluoromethyl-3-phenyl-4-(4-(methylsulfonyl)phenyl)-2-(5H)-furanone]	1100	> 30000	0.62

The next molecules have a lower IC50 [1] than those just listed; values first:

IC50 [1] [nM]	IC50 [2] [nM]	Compound	ED30 [3] [mg/kg]
600	> 30000	CS(=O)(=O)c1ccc(C2=C(c3ccccc3)C(=O)OC23CC3)cc1 [Example 13, 7-(4-(Methylsulfonyl)phenyl)-6-phenyl-4-oxa-spiro[2,4]-hept-6-en-5-one]	0.3
370	30000	CS(=O)(=O)c1ccc(C2=C(c3ccccc3)C(=O)OC23CCCC3)cc1 [Example 10, 4-(4-(Methylsulfonyl)phenyl)-3-phenyl-1-oxa-spiro[4,4]non-3-en-2-one]	0.41
170	> 30000	CC1(C)OC(=O)C(c2ccccc2)=C1c1ccc(S(C)(=O)=O)cc1 [Example 4, 5,5-Dimethyl-4-(4-(methylsulfonyl)phenyl)-3-phenyl-2-(5H)-furanone]	0.26
60	2200	CC1(C)CC(c2ccc(S(C)(=O)=O)cc2)=C(c2ccccc2)C1=O [Example 11, 5,5-Dimethyl-3-(4-(methylsulfonyl)phenyl)-2-phenylcyclopent-2-enone]	1.17
